Values of other authors, collected in article PMC9298350 (British Journal of Clinical Pharmacology, 2021).

SMILES: Cc1c(N(C)CS(=O)(=O)O)c(=O)n(-c2ccccc2)n1C [metamizole, Metamizole]
- Frequency of metamizole-associated agranulocytosis: 0.46–1.63 cases per 10^6 daily doses
- Mortality associated with ingestion (review of the available literature): 0.25 per 10^6 prescriptions
